The results in this text go back to patent US5225436A, “Aryl substituted naphthalene derivatives” (Schering Corporation, priority 1991, dated 1993).

Experiment [1] deals with SRS-A / leukotriene release from antigen-challenged, sensitized guinea pig lung. Kind of experiment: Inhibition of SRS-A (leukotriene) release from antigen-challenged, sensitized guinea pig lung. Format: cell-based. The note with it: Cavia porcellus; Dose 50 μm. The procedure, abridged: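 Chopped sensitized guinea pig lung fragments (~400 mg) preincubated with or without compound 12 min at 37° C in Tyrode's with 10 mM cysteine, then challenged with 20 μg/ml ovalbumin (final) for 15 min. Ethanol-extracted supernatant leukotrienes measured by [3H]LTC4 RIA (55% LTD4 cross-reactivity); % inhibition versus the same lung without compound.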

In a further experiment the target is T1, 5-lipoxygenase (Mus musculus, UniProt P48999).
T1 construct: The IL-3-dependent murine mast cell clone, MC-9, was used to test the effects; endogenous in cells; host or cells: MC-9 (IL-3-dependent murine mast cell clone)
T1 sequence (P48999 1-674): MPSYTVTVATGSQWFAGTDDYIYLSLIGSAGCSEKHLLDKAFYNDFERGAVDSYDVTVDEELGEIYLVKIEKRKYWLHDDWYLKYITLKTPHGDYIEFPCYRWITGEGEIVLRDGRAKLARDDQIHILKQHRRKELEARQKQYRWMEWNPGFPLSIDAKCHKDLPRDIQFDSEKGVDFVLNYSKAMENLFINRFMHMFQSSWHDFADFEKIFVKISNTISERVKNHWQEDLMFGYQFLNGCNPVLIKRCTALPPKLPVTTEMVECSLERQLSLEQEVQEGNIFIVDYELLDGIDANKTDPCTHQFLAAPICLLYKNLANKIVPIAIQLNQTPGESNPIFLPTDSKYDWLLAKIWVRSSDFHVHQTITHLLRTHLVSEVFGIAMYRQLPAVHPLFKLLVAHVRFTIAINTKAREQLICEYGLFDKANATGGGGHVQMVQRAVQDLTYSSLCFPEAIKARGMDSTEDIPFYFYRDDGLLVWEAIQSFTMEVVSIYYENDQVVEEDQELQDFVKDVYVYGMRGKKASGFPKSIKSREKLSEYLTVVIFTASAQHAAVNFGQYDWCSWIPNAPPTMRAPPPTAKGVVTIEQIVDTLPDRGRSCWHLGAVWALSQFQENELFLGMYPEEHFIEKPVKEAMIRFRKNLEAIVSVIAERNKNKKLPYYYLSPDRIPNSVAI
Kind of experiment: 5-Lipoxygenase assay (murine mast cell clone MC-9). Format: cell-based. The note with it: MC9, 5 min, MC-9 cell.

Experiment [2] deals with arachidonic acid induced mouse ear inflammation. Kind of experiment: Arachidonic acid mouse ear test. In kind it is in vivo, mouse (Charles River, female, CD, (SD) BR). Conditions: 1 mg/ear, topical, 30 minutes prior to AA challenge. How it is done:
Charles River, female, CD, (SD) BR mice, 6 weeks old, are caged 8/group and allowed to acclimate 1-3 weeks prior to use.
Arachidonic acid (AA) is dissolved in reagent grade acetone (2 mg/.01 ml) and stored at -20° C. for a maximum of 1 week prior to use. Inflammatory reactions are induced by applying […] of AA to both surfaces of one ear ([…] total).
Test drugs are dissolved in either reagent grade acetone or aqueous ethanol (only if insoluble in acetone) at the same doses selected by Opas et al., Fed. Proc. 43, Abstract 2983, p. 1927 (1984) and Young et al., J. Invest. Dermatol. 82, pp. 367-371 (1984). These doses are employed to ensure maximum responses and to overcome any difference in topical absorption which could occur with any drug applied in an aqueous ethanol vehicle. The test drug is applied 30 minutes prior to challenge with AA.
The severity of the inflammation is measured as a function of increased ear weight. A 6 mm punch biopsy is removed 1 hour after AA challenge and weighed to the nearest 0.1 mg. Mean ± standard error and all possible comparisons are made via Duncan's Multiple Range Statistic.

Experiment [3] concerns anaphylactic bronchospasm (antigen-induced SRS-A mediated bronchoconstriction). Put plainly: Inhibition of anaphylactic bronchospasm in sensitized guinea pigs. In kind it is in vivo, guinea pig. Conditions: Cavia porcellus, iv, 0.25 h, Dose 10 mpk, read-out: % Inhibition of anaphylactic bronchospasm. As for the experimental part: The anti-allergy method of this invention is identified by tests which measure a compound's inhibition of anaphylactic bronchospams-in sensitized guinea pigs having antigen-induced SRS-A mediated bronchoconstriction. Allergic bronchospams was measured in actively sensitized guinea pigs by a modification of the procedure of Konzett and Rossler, Arch. Exptl. Pathol. Pharmakol., 194, pp. 71-74 (1940). Male Hartley guinea pigs were sensitized with 5 mg ovalbumin injected ip and 5 mg injected sc in 1 ml saline on day 1 and 5 mg ovalbumin injected ip on day 4. The sensitized animals were used 3-4 weeks later. To measure anaphylactic bronchospasm, sensitized guinea pigs were fasted overnight and the following morning were anesthetized with 0.9 ml/kp ip dialurethane. The trachea and jugular vein were cannulated and the animals were ventilated by a Harvard rodent respirator. A side arm to the tracheal cannula was connected to a Harvard pressure transducer to obtain a continuous measure of intratracheal pressure. An increase in intratracheal pressure was taken as a measure of bronchoconstriction. Each guinea pig was injected iv with 1 mg/kg propranolol, 5 mg/kg indomethacin and 2 mg/kg mepyramine given together in a volume of […]. Fifteen minutes later, the animals were challenged with antigen (0.5 percent ovalbumin) delivered as an aerosol generated from a DeVilbiss Model 65 ultrasonic nebulizer and delivered through the tracheal cannula for 30 seconds. Bronchoconstriction was measured as the peak increase in intratracheal pressure occurring within 15 minutes after antigen challenge.

Molecules are shown by their SMILES. Read-outs that look alike come from different tables or passages of the source.

A word on the inhibition: it is how much of the control response was suppressed. For `CC1(C)C(c2ccc(O)c(O)c2)=C(O)C(=O)c2c(O)cc(O)cc21` [3-(3,4-dihydroxyphenyl)-2,6,8-trihydroxy-4,4-dimethyl-1(4H)-naphthalenone], the inhibition at 50 µM in experiment [1] is 81%. Moreover, at 5-lipoxygenase (read-out: % Inhibition 5-HETE), the inhibition at 5 µM is 43% and the inhibition at 50 µM stood at 95%. Besides, the “inhibition (increased ear weight)” value in experiment [2] is listed as 68%.
For `CC1(C)C(c2ccc(O)c(O)c2)=CC(=O)c2c(O)cc(O)cc21` [3-(3,4-dihydroxyphenyl)-6,8-dihydroxy-4,4-dimethyl-1(4H)-naphthalenone], in experiment [1], the inhibition at 50 µM stood at 77%. The inhibition in vivo at 10 mg/kg in experiment [3] came out at 17%. Further, on 5-lipoxygenase (read-out: % Inhibition 5-HETE), the inhibition at 2 µM stood at 52% and the inhibition at 5 µM was determined as 76%. In addition, the inhibition at 2 µM at 5-lipoxygenase (read-out: % Inhibition LTC4) was determined as 33%. Also, the “inhibition (increased ear weight)” value in experiment [2] (listed as 3-(3,4-dihydroxyphenyl)-6,8-dihydroxy-4,4-dimethyl-1(4H)-naphthalenone) was determined as 60%.
For the molecule `COc1cc(O)c2c(c1)C(C)(C)C(c1ccc(O)c(O)c1)=CC2=O` [3-(3,4-dihydroxyphenyl)-8-hydroxy-6-methoxy-4,4-dimethyl-1(4H)-naphthalenone], the inhibition at 50 µM in experiment [1] was found to be 43%. In addition, at 5-lipoxygenase (read-out: % Inhibition 5-HETE), the inhibition at 5 µM turned out to be 60%. The “inhibition (increased ear weight)” value in experiment [2] came out at 65%.
Consider `COc1cc(OC)c2c(c1)C(C)(C)C(c1ccc(OC)c(OC)c1)CC2=O` (centres unmarked) [3-(3,4-dimethoxyphenyl)-6,8-dimethoxy-4,4-dimethyl-3 4-dihydro-1(2H)-naphthalenone], for which the inhibition at 50 µM came to 62% in experiment [1], 100% on 5-lipoxygenase (read-out: % Inhibition 5-HETE) and 99% at 5-lipoxygenase (read-out: % Inhibition LTC4). Further, the inhibition in vivo at 10 mg/kg in experiment [3] turned out to be 0%. For the same molecule, the inhibition at 5 µM was found to be 29% at 5-lipoxygenase (read-out: % Inhibition 5-HETE) and 36% on 5-lipoxygenase (read-out: % Inhibition LTC4). Further, the “inhibition (increased ear weight)” value in experiment [2] is 50%.
